The target in data set [1] is T1, aminopeptidase N (L5006-25UN, Sigma) (Sus scrofa, UniProt P15145).
T1 sequence (P15145 1-963): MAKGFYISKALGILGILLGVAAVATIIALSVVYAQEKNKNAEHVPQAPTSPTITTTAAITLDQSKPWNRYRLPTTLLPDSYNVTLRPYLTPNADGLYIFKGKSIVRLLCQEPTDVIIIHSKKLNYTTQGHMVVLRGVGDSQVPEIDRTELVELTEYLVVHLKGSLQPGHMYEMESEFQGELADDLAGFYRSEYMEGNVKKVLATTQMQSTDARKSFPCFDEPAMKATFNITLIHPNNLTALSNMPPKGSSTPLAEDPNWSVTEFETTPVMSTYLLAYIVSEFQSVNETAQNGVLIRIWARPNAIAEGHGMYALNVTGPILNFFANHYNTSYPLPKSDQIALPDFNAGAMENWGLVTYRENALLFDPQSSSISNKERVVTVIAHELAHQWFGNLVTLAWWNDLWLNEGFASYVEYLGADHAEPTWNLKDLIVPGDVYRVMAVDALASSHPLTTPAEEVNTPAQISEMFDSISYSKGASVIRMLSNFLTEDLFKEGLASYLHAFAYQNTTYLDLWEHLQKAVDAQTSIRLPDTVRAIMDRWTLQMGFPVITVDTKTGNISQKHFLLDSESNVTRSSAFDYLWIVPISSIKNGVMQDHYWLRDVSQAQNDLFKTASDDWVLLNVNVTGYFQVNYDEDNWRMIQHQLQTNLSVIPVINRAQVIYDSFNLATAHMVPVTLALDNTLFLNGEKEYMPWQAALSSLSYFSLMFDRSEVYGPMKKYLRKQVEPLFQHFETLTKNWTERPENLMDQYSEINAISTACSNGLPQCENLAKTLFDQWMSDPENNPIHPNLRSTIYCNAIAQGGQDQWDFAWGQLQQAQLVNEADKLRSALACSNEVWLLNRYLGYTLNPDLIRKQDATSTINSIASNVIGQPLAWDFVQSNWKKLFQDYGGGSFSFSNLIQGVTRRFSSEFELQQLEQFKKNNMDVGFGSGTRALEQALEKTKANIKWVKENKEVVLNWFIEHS
Experimental: Biotechnol., 1995, 5(1):36-40” is followed to analyze the bioactivity of 3-amino-2-hydroxy-4-phenylbutanoyl-valyl-isoleucine, taking bestatin, a typical APN inhibitor used in leukemia treatment, as positive control.
The procedure for the assay is as follows: apply 100 μl (1 mg/ml in a 0.1M Tris-HCl, pH 7.0) of substrate (L-leucine-p-nitroanilide) to a 96-well plate, mix with 20 µl (0.1M Tris-HCl, pH 7.0) of the compound to be assayed of different concentration (0.86, 1.71, 2.57, 4.29, 8.57 μg/ml). Incubate at 37° C. for 3 min, followed by addition of 20 μl (2 mU, 0.1M Tris-HCl, pH 7.0) aminopeptidase N (L5006-25UN, Sigma), incubate at 37° C. for 30 min. Read the absorbance at 405 nm.
The inhibition rate is presented as:
Inhibition rate=(A−B)/A*100%
wherein: • A is the absorbance tested without inhibitor in the system. • B is the absorbance detected in the system containing different concentration of the compound. Use 0.1M Tris-HCl (pH 7.0) to normalize the buffer.

A short description of data set [2]: Solubility of the purified product in solvents. The format is physicochemical. How it is done: The broth is harvested and placed at 4° C. overnight. Remove the precipitate by centrifugation at 4000 rpm, 4° C., for 30 min. The supernatant is subject to macroporous resin, which is selected from: XAD-1600, SP850, or JD-1, by either static or dynamic mode. The resin is then eluted with double volume of purified water, 10%, 30%, 50%, 75%, and 100% of ethanol. Collect the fraction of the 50% elute and concentrate it under reduced pressure at 40° C. Dilute the concentrate by 10 fold with 30% acetonitrile and centrifuge at 12000 rpm for 10 min. Load 15-25 ml of the supernatant to a column for preparative chromatography (Biotage Si 25+M 1603-2, USA) at room temperature. Elute the column with 30% acetonitrile at flow rate of 3-5 ml/min, and collect the fraction of 200-400 ml. The collected elute is then concentrate under reduced pressure at 40° C., and the concentrate is subject to preparative HPLC by DIONEXP680 system or Agilent 1100 DAD system. The fraction containing target compound is concentrated and dried under reduced pressure at 40° C., and a purified product is obtained. […]

[3] abbreviates: read-out: Inhibition Rate against APN (IR).

This is an account of results in patent US20140018303A1.

By inhibition is commonly meant the drop in the measured response relative to a control, in per cent.

Read-outs that look alike come from different tables or passages of the source.

As for `CC(C)C[C@H](NC(=O)[C@@H](O)[C@H](N)Cc1ccccc1)C(=O)O` [positive control, bestatin, reference compound], in data set [1] (setting [3]), the inhibition at 0.86 µg/mL is 41.6%, the inhibition at 1.71 µg/mL stood at 44.4%, the inhibition at 2.57 µg/mL was 47.1% and the inhibition at 4.29 µg/mL is 52.6%. The inhibition at 8.57 µg/mL in data set [1] (setting [3]) came out at 66.5%.
For the molecule `CC[C@H](C)[C@H](NC(=O)[C@@H](NC(=O)C(O)C(N)Cc1ccccc1)C(C)C)C(=O)O` (stereo partly drawn) [the compound], the solubility entry is given as “insoluble” in data set [2] (in chloroform); “soluble” in data set [2] (in methanol, ethanol, water and acetonitrile). Besides, the “Inhibition Rate against APN (IR)” value was 42.02% in data set [1] (concentration 0.86 μg/ml); 51.40% in data set [1] (concentration 1.71 μg/ml); 65.14% in data set [1] (concentration 2.57 μg/ml); 70.79% in data set [1] (concentration 4.29 μg/ml); 77.91% in data set [1] (concentration 8.57 μg/ml).
